Data on 22 compounds can be found in patent US10196393B2, “JAK inhibitors containing a 4-membered heterocyclic amide” (THERAVANCE BIOPHARMA R&D IP, LLC, priority 2017, dated 2019).

For assay [1], the system named is IL-13 induced STAT6 phosphorylation in BEAS-2B human lung epithelial cells. As to the kind of experiment: Cellular JAKI potency assay (AlphaScreen), BEAS-2B. It is filed as cell-based. The following applies: BEAS-2B cells. How it is done: Assay 2: Cellular JAKI Potency Assay
The AlphaScreen JAKI cellular potency assay was carried out by measuring interleukin-13 (IL-13, R&D Systems) induced STAT6 phosphorylation in BEAS-2B human lung epithelial cells (ATCC). The anti-STAT6 antibody (Cell Signaling Technologies) was conjugated to AlphaScreen acceptor beads (Perkin Elmer), while the anti-pSTAT6 (pTyr641) antibody (Cell Signaling Technologies) was biotinylated using EZ-Link Sulfo-NHS-Biotin (Thermo Scientific).
BEAS-2B cells were grown at 37° C. in a 5% CO2 humidified incubator in 50% DMEM/50% F-12 medium (Life Technologies) supplemented with 10% FBS (Hyclone), 100 U/mL penicillin, 100 μg/mL streptomycin (Life Technologies), and 2 mM GlutaMAX (Life Technologies). On day 1 of the assay, cells were seeded at a 7,500 cells/well density in white poly-D-lysine-coated 384-well plates (Corning) with 25 μL medium, and were allowed to adhere overnight in the incubator. On day 2 of the assay, the medium was removed and replaced with 12 μL of assay buffer (Hank's Balanced Salt Solution/HBSS, 25 mM HEPES, and 1 mg/ml bovine serum albumin/BSA) containing dose-responses of test compounds. Compounds were serially diluted in DMSO and then diluted another 1000-fold in media to bring the final DMSO concentration to 0.1%. Cells were incubated with test compounds at 37° C. for 1 h, and followed by the addition of 12 μl of pre-warmed IL-13 (80 ng/mL in assay buffer) for stimulation. After incubating at 37° C. for 30 min, the assay buffer (containing compound and IL-13) was removed, and 10 μL of cell lysis buffer (25 mM HEPES, 0.1% SDS, 1% NP-40, 5 mM MgCl2, 1.3 mM EDTA, 1 mM EGTA, and supplement with Complete Ultra mini protease inhibitors and PhosSTOP from Roche Diagnostics). The plates were shaken at ambient temperature for 30 min before the addition of detection reagents. A mixture of biotin-anti-pSTAT6 and anti-STAT6 conjugated acceptor beads was added first and incubated at ambient temperature for 2 h, followed by the addition of streptavidin conjugated donor beads (Perkin Elmer). After a minimum of 2 h incubation, the assay plates were read on the EnVision plate reader. AlphaScreen luminescence signals were recorded and utilized to calculate the percent inhibition values based on DMSO and background controls.
For dose-response analysis, percent inhibition data were plotted vs. compound concentrations, and IC50 values were determined from a 4-parameter robust fit model with the Prism software. Results may also be expressed as the negative logarithm of the IC50 value, pIC50.
Test compounds having a lower IC50 value or higher pIC50 value in this assay show greater inhibition of IL-13 induced STAT6 phosphorylation.
On the technique in general: Alpha assays give light when donor and acceptor beads are brought close together.

In assay [2] the test system is IL-13 induced pSTAT6 induction in lung tissue. Briefly: Murine model of IL-13 induced pSTAT6 induction in lung tissue. In kind it is in vivo. The following applies: mouse lung, 1 mg/mL 50 μL oral aspiration, IL-13 challenge 4 h after dose, lungs at 5 hours. The source says: Assay 4: Murine (Mouse) Model of IL-13 Induced pSTAT6 Induction in Lung Tissue
Il-13 is an important cytokine underlying the pathophysiology of asthma (Kudlacz et al. Eur. J. Pharmacol, 2008, 582,154-161). IL-13 binds to cell surface receptors activating members of the Janus family of kinases (JAK) which then phosphorylate STAT6 and subsequently activates further transcription pathways. In the described model, a dose of IL-13 was delivered locally into the lungs of mice to induce the phosphorylation of STAT6 (pSTAT6) which is then measured as the endpoint.
Adult balb/c mice from Harlan were used in the assay. On the day of study, animals were lightly anesthetized with isoflurane and administered either vehicle or test compound (1 mg/mL, 50 μL total volume over several breaths) via oral aspiration. Animals were placed in lateral recumbency post dose and monitored for full recovery from anesthesia before being returned to their home cage. Four hours later, animals were once again briefly anesthetized and challenged with either vehicle or IL-13 (0.03 μg total dose delivered, 50 μL total volume) via oral aspiration before being monitored for recovery from anesthesia and returned to their home cage. One hour after vehicle or IL-13 administration, lungs were collected for both pSTAT6 detection using an anti-pSTAT6 ELISA (rabbit mAb capture/coating antibody; mouse mAb detection/report antibody: anti-pSTAT6-pY641; secondary antibody: anti-mouse IgG-HRP) and analyzed for total drug concentration as described above in Assay 3.
Selected compounds of the invention were tested in the assay. Activity in the model is evidenced by a decrease in the level of pSTAT6 present in the lungs of treated animals at 5 hours compared to the vehicle treated, IL-13 challenged control animals. The difference between the control animals which were vehicle-treated, IL-13 challenged and the control animals which were vehicle-treated, vehicle challenged dictated the 0% and 100% inhibitory effect, respectively, in any given experiment.

Another assay has as its target JAK1 (Homo sapiens (Human), UniProt P23458). Briefly: Biochemical JAK kinase assay (LanthaScreen), JAK1. The following applies: converted from pIC50 with Cheng-Prusoff equation. The method, then:
(§1) Assay 1: Biochemical JAK Kinase Assays
(§2) A panel of four LanthaScreen JAK biochemical assays (JAK1, 2, 3 and Tyk2) were carried in a common kinase reaction buffer (50 mM HEPES, pH 7.5, 0.01% Brij-35, 10 mM MgCl2, and 1 mM EGTA). Recombinant GST-tagged JAK enzymes and a GFP-tagged STAT1 peptide substrate were obtained from Life Technologies.
(§3) Serially diluted compounds were pre-incubated with each of the four JAK enzymes and the substrate in white 384-well microplates (Corning) at ambient temperature for 1 h. ATP was subsequently added to initiate the kinase reactions in 10 μL total volume, with 1% DMSO. […] The plates were allowed to incubate at ambient temperature for 1 h before being read on the EnVision reader (Perkin Elmer).
(§4) For dose-response analysis, percent inhibition data were plotted vs. compound concentrations, and IC50 values were determined from a 4-parameter robust fit model with the Prism software (GraphPad Software). Results were expressed as pIC50 (negative logarithm of IC50) and subsequently converted to pKi (negative logarithm of dissociation constant, Ki) using the Cheng-Prusoff equation.

Another assay addresses JAK3 (Homo sapiens (Human), UniProt P52333). Briefly: Biochemical JAK kinase assay (LanthaScreen), JAK3. The following applies: converted from pIC50 with Cheng-Prusoff equation. How it is done:
as §1, §2, §3, §4

The structures appear in SMILES notation.

JAK1, sequence (P23458 whole entry): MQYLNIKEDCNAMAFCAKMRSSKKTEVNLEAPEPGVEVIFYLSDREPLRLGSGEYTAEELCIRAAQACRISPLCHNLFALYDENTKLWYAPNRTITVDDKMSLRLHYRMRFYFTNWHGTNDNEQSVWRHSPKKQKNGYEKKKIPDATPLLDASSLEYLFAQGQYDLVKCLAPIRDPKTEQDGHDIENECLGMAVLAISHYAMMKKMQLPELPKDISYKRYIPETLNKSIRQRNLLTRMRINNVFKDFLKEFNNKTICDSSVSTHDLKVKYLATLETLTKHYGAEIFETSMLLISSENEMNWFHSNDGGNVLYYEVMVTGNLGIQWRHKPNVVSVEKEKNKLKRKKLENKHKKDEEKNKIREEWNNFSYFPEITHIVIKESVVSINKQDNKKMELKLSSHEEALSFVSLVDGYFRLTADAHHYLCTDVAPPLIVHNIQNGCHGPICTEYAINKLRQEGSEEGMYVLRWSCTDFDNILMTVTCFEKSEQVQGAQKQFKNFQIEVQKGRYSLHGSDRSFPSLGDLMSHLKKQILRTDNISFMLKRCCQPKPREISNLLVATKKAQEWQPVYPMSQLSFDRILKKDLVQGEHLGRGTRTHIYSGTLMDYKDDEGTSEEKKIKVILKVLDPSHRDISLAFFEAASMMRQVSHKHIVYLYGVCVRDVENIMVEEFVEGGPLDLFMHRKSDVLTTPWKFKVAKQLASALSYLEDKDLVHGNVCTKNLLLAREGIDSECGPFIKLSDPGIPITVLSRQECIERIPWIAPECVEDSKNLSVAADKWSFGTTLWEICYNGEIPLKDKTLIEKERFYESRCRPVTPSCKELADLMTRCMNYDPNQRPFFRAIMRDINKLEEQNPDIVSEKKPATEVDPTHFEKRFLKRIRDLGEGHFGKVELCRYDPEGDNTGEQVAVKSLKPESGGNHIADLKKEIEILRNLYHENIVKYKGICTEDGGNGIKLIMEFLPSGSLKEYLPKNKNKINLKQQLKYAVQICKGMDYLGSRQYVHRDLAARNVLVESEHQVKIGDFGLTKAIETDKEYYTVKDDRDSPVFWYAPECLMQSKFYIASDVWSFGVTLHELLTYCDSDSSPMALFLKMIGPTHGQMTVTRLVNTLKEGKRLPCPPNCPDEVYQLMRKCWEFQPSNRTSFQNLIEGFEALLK
JAK3, sequence (P52333 whole entry): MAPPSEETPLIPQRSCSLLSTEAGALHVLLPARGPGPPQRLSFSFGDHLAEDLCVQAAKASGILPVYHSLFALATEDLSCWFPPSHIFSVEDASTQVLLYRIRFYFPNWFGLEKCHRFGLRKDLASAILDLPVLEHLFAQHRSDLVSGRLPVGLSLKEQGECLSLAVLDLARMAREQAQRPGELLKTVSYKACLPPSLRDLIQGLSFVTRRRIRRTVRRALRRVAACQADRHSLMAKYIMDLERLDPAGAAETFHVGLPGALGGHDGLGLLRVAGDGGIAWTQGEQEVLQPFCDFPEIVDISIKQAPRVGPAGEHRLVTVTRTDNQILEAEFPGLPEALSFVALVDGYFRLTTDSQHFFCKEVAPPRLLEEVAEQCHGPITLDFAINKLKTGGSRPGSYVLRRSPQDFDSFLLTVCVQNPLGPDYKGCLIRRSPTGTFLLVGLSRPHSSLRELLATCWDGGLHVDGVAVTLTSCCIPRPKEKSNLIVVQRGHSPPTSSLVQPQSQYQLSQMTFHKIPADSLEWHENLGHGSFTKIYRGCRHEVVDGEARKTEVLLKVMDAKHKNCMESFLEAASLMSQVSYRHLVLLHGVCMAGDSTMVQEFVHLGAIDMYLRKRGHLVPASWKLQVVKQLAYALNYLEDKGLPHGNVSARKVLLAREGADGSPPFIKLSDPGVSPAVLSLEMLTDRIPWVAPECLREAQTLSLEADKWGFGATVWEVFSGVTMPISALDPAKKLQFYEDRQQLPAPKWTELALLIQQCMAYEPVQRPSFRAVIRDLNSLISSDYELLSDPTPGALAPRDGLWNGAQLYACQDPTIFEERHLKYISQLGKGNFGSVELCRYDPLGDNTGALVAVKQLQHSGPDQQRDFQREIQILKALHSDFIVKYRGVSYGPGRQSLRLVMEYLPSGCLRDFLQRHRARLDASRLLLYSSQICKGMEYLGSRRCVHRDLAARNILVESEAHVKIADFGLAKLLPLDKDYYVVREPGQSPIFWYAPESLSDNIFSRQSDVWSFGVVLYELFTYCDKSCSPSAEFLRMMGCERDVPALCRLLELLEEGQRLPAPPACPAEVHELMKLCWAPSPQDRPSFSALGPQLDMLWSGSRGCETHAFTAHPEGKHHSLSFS

Compound `CCc1cc(O)c(F)cc1-c1ccc2c(-c3nc4c([nH]3)CN(CC)C(C(=O)N3CC(N5CCCCC5)C3)C4)n[nH]c2c1` (racemic) [Example 8-4] returned a 50% inhibitory concentration (IC50) in assay [1] of 10 nM.

`CCCN1Cc2[nH]c(-c3n[nH]c4cc(-c5cc(F)c(O)cc5CC)ccc34)nc2C[C@H]1C(=O)N1CC(C)(N(C)C)C1` [Example 8, (S)-(3-(dimethylamino)-3-methylazetidin-1-yl)(2-(6-(2-ethyl-5-fluoro-4-hydroxyphenyl)-1H-indazol-3-yl)-5-propyl-4,5,6,7-tetrahydro-3H-imidazo[4,5-c]pyridin-6-yl)methanone] showed an IC50 in assay [1] (Homo sapiens) of 8.5 nM. Also, the “pSTAT6 inhibition Assay 4” value in assay [2] was “B (B represents between 40% and 60% inhibition)”.

On to `CCc1cc(O)c(F)cc1-c1ccc2c(-c3nc4c([nH]3)CN(C)[C@H](C(=O)N3CC(N5CCCCC5)C3)C4)n[nH]c2c1` [Example 8-1], for which the inhibition constant (Ki) on JAK1 was determined as 0.06 nM. Further, in assay [1], it took 6.3 nM to reach half-maximal inhibition (IC50).

On to `CCc1cc(O)c(F)cc1-c1ccc2c(-c3nc4c([nH]3)CN(C)[C@H](C(=O)N3CC(N(C)C)C3)C4)n[nH]c2c1` [Example 8-2], for which the Ki at JAK1 amounted to 0.06 nM. In addition, in assay [1], it took 12.6 nM to reach half-maximal inhibition (IC50).

Turning to `CCCN1Cc2[nH]c(-c3n[nH]c4cc(-c5cc(F)c(O)cc5CC)ccc34)nc2C[C@H]1C(=O)N1CC(N2CCCCC2)C1` [Example 8-5], at JAK3, the Ki is 0.2 nM. In addition, half-maximal inhibition in assay [1] (IC50) was put at 25.1 nM.

`CCc1cc(O)c(F)cc1-c1ccc2c(-c3nc4c([nH]3)CN(C(C)C)[C@H](C(=O)N3CC(N5CCCCC5)C3)C4)n[nH]c2c1` [Example 8-6]: at JAK1, the inhibition constant (Ki) was 0.06 nM. The compound also had a 50% inhibitory concentration (IC50) in assay [1] of 15.8 nM.

Regarding `CCc1cc(O)c(F)cc1-c1ccc2c(-c3nc4c([nH]3)CN(C(C)C)[C@H](C(=O)N3CC(N(C)C)C3)C4)n[nH]c2c1` [Example 8-7], the figures for the Ki on JAK1 and at JAK3 were 0.06 nM and 0.2 nM, respectively. The IC50 in assay [1] amounted to 3.1 nM. In addition, the “pSTAT6 inhibition Assay 4” value in assay [2] is “B (B represents between 40% and 60% inhibition)”.

`CCc1cc(O)c(F)cc1-c1ccc2c(-c3nc4c([nH]3)CN(CC)C(C(=O)N3CC(N(C)C)C3)C4)n[nH]c2c1` (stereo not drawn) [Example 8-8] showed a Ki on JAK3 of 0.28 nM. In addition, the half-inhibitory concentration (IC50) in assay [1] worked out at 5 nM.

For the compound `CCc1cc(O)c(F)cc1-c1ccc2c(-c3nc4c([nH]3)CN(C)C(C(=O)N3CC(C)(N(C)C)C3)C4)n[nH]c2c1` (stereo not drawn) [Example 8-9], the Ki came to 0.05 nM on JAK1 and 0.16 nM at JAK3. Besides, in assay [1] (Homo sapiens), the midpoint of inhibition, the IC50, lay at 7.1 nM.

In assay [1] (Homo sapiens), `CCc1cc(O)c(F)cc1-c1ccc2c(-c3nc4c([nH]3)CN(CC)C(C(=O)N3CC(C)(N(C)C)C3)C4)n[nH]c2c1` (stereo not drawn) [Example 8-10] registered a half-maximal inhibitory concentration (IC50) of 3.2 nM.

In assay [1] (Homo sapiens), `CCCN1Cc2[nH]c(-c3n[nH]c4cc(-c5cc(F)c(O)cc5CC)ccc34)nc2CC1C(=O)N1CC(C)(N(C)C)C1` (stereo not drawn) [Example 8-11] gave an IC50 of 6.3 nM.

In the case of `CCc1cc(O)c(F)cc1-c1ccc2c(-c3nc4c([nH]3)CN(C(C)C)C(C(=O)N3CC(C)(N(C)C)C3)C4)n[nH]c2c1` (stereo not drawn) [Example 8-12], the affinity on JAK1 corresponds to a Ki of 0.06 nM. Half-maximal inhibition in assay [1] (Homo sapiens) (IC50) required 4 nM.

Compound `CCc1cc(O)c(F)cc1-c1ccc2c(-c3nc4c([nH]3)CN(CC)[C@H](C(=O)N3CC(N5CCCCC5)C3)C4)n[nH]c2c1` [Example 8-14, (S)-(5-ethyl-2-(6-(2-ethyl-5-fluoro-4-hydroxyphenyl)-1H-indazol-3-yl)-4,5,6,7-tetrahydro-3H-imidazo[4,5-c]pyridin-6-yl)(3-(piperidin-1-yl)azetidin-1-yl)methanone] registered an IC50 in assay [1] (Homo sapiens) of 12.6 nM.

In the case of `CCc1cc(O)c(F)cc1-c1ccc2c(-c3nc4c([nH]3)CN(C(C)C)C(C(=O)N3CC(C)(N(C)C)C3)C4)n[nH]c2c1` (stereo not drawn) [Example 8-16], the “pSTAT6 inhibition Assay 4” value in assay [2] was “C (C represents between 25% and 40% inhibition)”.

`CCc1cc(O)c(F)cc1-c1ccc2c(-c3nc4c([nH]3)CN(C(C)C)[C@H](C(=O)N3CC(C)(N(C)C)C3)C4)n[nH]c2c1` [Example 8-16] gave a 50% inhibitory concentration (IC50) in assay [1] (Homo sapiens) of 5 nM.

At JAK3, `CCc1cc(O)c(F)cc1-c1ccc2c(-c3nc4c([nH]3)CN(C(C)C)[C@@H](C(=O)N3CC(N(C)C)C3)C4)n[nH]c2c1` [Example 8-17] yielded a Ki of 0.13 nM. The same compound gave an IC50 in assay [1] of 8 nM.

Regarding `CCc1cc(O)c(F)cc1-c1ccc2c(-c3nc4c([nH]3)CN(C(C)C)[C@@H](C(=O)N3CC(C)(N(C)C)C3)C4)n[nH]c2c1` [Example 8-18], the IC50 in assay [1] (Homo sapiens) was found to be 4 nM.

For `CCCN1Cc2[nH]c(-c3n[nH]c4cc(-c5cc(F)c(O)cc5CC)ccc34)nc2C[C@@H]1C(=O)N1CC(C)(N(C)C)C1` [Example 8-19], in assay [1] (Homo sapiens), it took 8 nM to reach half-maximal inhibition (IC50).

In turn, `CCc1cc(O)c(F)cc1-c1ccc2c(-c3nc4c([nH]3)CN(CC)[C@@H](C(=O)N3CC(N(C)C)C3)C4)n[nH]c2c1` [Example 8-20] had an inhibition constant Ki on JAK3 of 0.2 nM. This compound also had an IC50 in assay [1] of 5 nM.

In turn, `CCc1cc(O)c(F)cc1-c1ccc2c(-c3nc4c([nH]3)CN(CC)[C@@H](C(=O)N3CC(C)(N(C)C)C3)C4)n[nH]c2c1` [Example 8-21] displayed an IC50 in assay [1] (Homo sapiens) of 4 nM.

At JAK3, `CCc1cc(O)c(F)cc1-c1ccc2c(-c3nc4c([nH]3)CN(CC)[C@H](C(=O)N3CC(N(C)C)C3)C4)n[nH]c2c1` [Example 8-22, (S)-(3-(dimethylamino)azetidin-1-yl)(5-ethyl-2-(6-(2-ethyl-5-fluoro-4-hydroxyphenyl)-1H-indazol-3-yl)-4,5,6,7-tetrahydro-3H-imidazo[4,5-c]pyridin-6-yl)methanone] displayed a Ki of 0.32 nM. Further, 5.25 nM corresponded to half-maximal inhibition in assay [1] (Homo sapiens) (IC50). In addition, in assay [2], the “pSTAT6 inhibition Assay 4” value is “B (B represents between 40% and 60% inhibition)”.

In the case of `CCc1cc(O)c(F)cc1-c1ccc2c(-c3nc4c([nH]3)CN(CC)[C@H](C(=O)N3CC(C)(N(C)C)C3)C4)n[nH]c2c1` [Example 8-23, (S)-(3-(dimethylamino)-3-methylazetidin-1-yl)(5-ethyl-2-(6-(2-ethyl-5-fluoro-4-hydroxyphenyl)-1H-indazol-3-yl)-4,5,6,7-tetrahydro-3H-imidazo[4,5-c]pyridin-6-yl)methanone], the 50% inhibitory concentration (IC50) in assay [1] (Homo sapiens) turned out to be 7.7 nM. In addition, the “pSTAT6 inhibition Assay 4” value in assay [2] was “B (B represents between 40% and 60% inhibition)”.

Broadly, the IC50 is the midpoint of a concentration-inhibition curve. Low values mean higher potency, high ones lower potency. One may read the Ki as the equilibrium dissociation constant of an inhibitor or competing ligand from its target. Read a low Ki as a stronger hold on the target.
